Experiments:
Dahlen soil = assay: Soil thin-layer chromatography (TLC) leaching study, Dahlen soil; format: physicochemical; conditions: Dahlen soil TLC
Protocol: (§1) TLC plates were prepared based on methods described in the literature (Helling, C. S., Turner, B. C, Science 1968, 162, 562-563; Mohammad, A., Jabeen, N., JPC—Journal of Planar Chromatography—Modern TLC 2003, 16, 137-143). Masking tape (3 layers, ˜[…] total thickness) was used to outline three columns (4 cm W×12 cm H) on a glass TLC plate (20×20 cm). A slurry of freshly ground soil in distilled H2O (˜2:3 m/v) was then poured onto the prepared plate and spread evenly using a glass rod. Once even, the plate was dried overnight in an oven at 35° C. Careful removal of the masking tape afforded the TLC plate ready for sample application.
(§2) Samples of DMP (the active core of DMPP) or Compound 16 (˜1 mg) dissolved in acetone (100 μL) were pipetted in a straight line across the soil, 2 cm above the base of the plate. Application band thickness was kept under 0.5 cm. After 30 mins of drying time, the TLC plate was developed inside a glass developing chamber with distilled H2O (depth of 0.5 cm) until the solvent front reached the top of the soil (˜1 hr). […] The plate was then allowed to air dry overnight.
(§3) Once dry, the plate was divided into six horizontal bands corresponding to Rf values of: (1) <0.05 (baseline), (2) 0.05 to 0.25, (3) 0.25 to 0.45, (4) 0.45 to 0.65, (5) 0.65 to 0.85, and (6) 0.85 to 1. In sequence, soil in each band was carefully scraped off the glass backing and collected in vials. Special care was taken to avoid cross-contamination between soil of different bands, and the separate channels.
(§4) Individual soil bands collected from the TLC plate were extracted as follows: • 1. Addition of an aqueous solution of CaCl2/MgSO4 (0.01M and 0.45M respectively, 2 mL). • 2. Sonication for 5 minutes then manual shaking for 30 seconds. • 3. Addition of methyl-tert-butyl ether (MTBE, 2 mL) then manual shaking for 30 seconds. • 4. Sonication for 10 minutes then manual shaking for 30 seconds. • 5. Rested until soil began to settle, then frozen overnight at −20° C. • 6. After partial defrosting, the ethereal extract was filtered through nylon syringe filters (FilterBio®, 13 mm diameter, 0.45 µm pore size).
(§5) The filtered ethereal extracts (450 μL) were spiked with 50 μL of a standard solution of either cyclododecanone in MTBE (1.97 mg/mL, for DMP-treated samples) or cyclooctanone in MTBE (6.37 mg/mL, for 16-treated samples). Samples were then directly analysed by GC-MS (method: 70° C. for 5 mins, then ramp 10° C./min to 250° C., hold at 250° C. for 17 mins [total run time=40 minutes]) to analyse the presence or absence of the inhibitor in each soil band.
(§6) GC-MS peak areas calculated for the standards cyclooctanone (Rt=9.1 mins) and cyclododecanone (Rt=15.8 mins) were compared to those calculated for Compound 16 (Rt=13.9 mins) and DMP (Rt=7.6 mins) respectively, for each soil sample extract where inhibitor was detected as follows:
(§7) As each treatment was run in triplicate, mean values are reported for detected inhibitor percentages for each Rf band, with errors presented as the standard deviation.
as §2, with “the DCD” for “DMP (the active core of DMPP) or Compound 16”, “methanol (300” for “acetone (100”, “in” for “with”
(§8) Individual soil bands collected from the TLC plate were extracted as follows: • 1. Addition of methanol (2 mL). • 2. Manual shaking for 30 seconds following sonication for 15 minutes. • 3. Once soil began to settle, the methanolic extract was filtered through nylon syringe filters (FilterBio®, 13 mm diameter, 0.45 µm pore size). • 4. 300 μL of the methanolic extracts were evaporated under nitrogen flow, and then the residues was taken up in ultrapure acetonitrile (1 mL). • 5. […]

South Johnstone soil = assay: Soil thin-layer chromatography (TLC) leaching study, South Johnstone soil; format: physicochemical
Protocol: as §1, §2, §3, §4, §5, §6, §7
as §2, with “the DCD” for “DMP (the active core of DMPP) or Compound 16”, “methanol (300” for “acetone (100”, “in” for “with”
as §8

Row | Compound | Rf range in which the majority of the inhibitor was detected (Dahlen soil) | Detected Inhibitor (%) (Dahlen soil; Rf 0.45-0.65) | Detected Inhibitor (%) (Dahlen soil; Rf 0.65-0.85) | Detected Inhibitor (%) (Dahlen soil; Rf 0.85-1) | Detected Inhibitor (%) (South Johnstone soil; South Johnstone soil TLC, Rf 0.25-0.45) | Detected Inhibitor (%) (South Johnstone soil; South Johnstone soil TLC, Rf 0.45-0.65) | Detected Inhibitor (%) (South Johnstone soil; South Johnstone soil TLC, Rf 0.65-0.85) | leaching in soil TLC (South Johnstone soil; acidic South Johnstone soil) | Rf range of largest DCD accumulation (Dahlen soil; HPLC detection, preliminary results) | Rf range of largest DCD accumulation (South Johnstone soil; South Johnstone soil TLC, HPLC detection, preliminary results)
1 | Cc1c[nH]nc1C [DMP, 3,4-dimethylpyrazole, reference compound] | 0.65-0.85 | 0.1 ± 0.2% | 72 ± 16% | 28 ± 16% | 2 ± 2% | 56 ± 12% | 42 ± 13% | leach in a narrower band and to a lesser extent than Compound 16 | – | –
2 | N#CN=C(N)N [DCD, dicyandiamide, reference compound] | – | – | – | – | – | – | – | – | 0.65-1 | 0.65-1

— patent US20220324770A1, “NITRIFICATION INHIBITORS” (The University of Melbourne, priority 2019, published 2022)
